Laboratory results as given in the supplement of paper PMC10307832.

Tests used:
Test in all cases: relative viability (nuclei count vs DMSO), 5 days (fraction); higher = more cells survive
FG-4592 + Pemetrexed = compound: Cc1nc(C(=O)NCC(=O)O)c(O)c2ccc(Oc3ccccc3)cc12 [FG-4592] + Nc1nc2[nH]cc(CCc3ccc(C(=O)N[C@@H](CCC(=O)O)C(=O)O)cc3)c2c(=O)[nH]1 [Pemetrexed] (partner 0.2 µM)
How it was run: (§1)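 For relative viability, nuclei counts in treated wells were divided by those in vehicle wells. Lung cancer cell lines had been pin-tool dosed in 1536-well plates the day after seeding and cultured for 5 days, then fixed and stained in one step (final 0.05% Triton X-100, 1% formaldehyde, 1 ug/ml Hoechst) and imaged at 4×. Doses were one drug alone or a fixed anchor-drug dose plus five library-drug doses (not always all listed) in √10 steps, and values are duplicate-plate medians.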

FG-4592 + Lapatinib = compound: Cc1nc(C(=O)NCC(=O)O)c(O)c2ccc(Oc3ccccc3)cc12 [FG-4592] + CS(=O)(=O)CCNCc1ccc(-c2ccc3ncnc(Nc4ccc(OCc5cccc(F)c5)c(Cl)c4)c3c2)o1 [Lapatinib] (partner 2 µM)
How it was run: as §1

IU1-47 + Foretinib = compound: CC1=CC(=C(N1C2=CC=C(C=C2)Cl)C)C(=O)CN3CCCCC3 [IU1-47] + COc1cc2c(Oc3ccc(NC(=O)C4(C(=O)Nc5ccc(F)cc5)CC4)cc3F)ccnc2cc1OCCCN1CCOCC1 [Foretinib] (partner 0.25 µM)
How it was run: as §1

FG-4592 + OSI-027 = compound: Cc1nc(C(=O)NCC(=O)O)c(O)c2ccc(Oc3ccccc3)cc12 [FG-4592] + COc1cccc2cc(-c3nc([C@H]4CC[C@H](C(=O)O)CC4)n4ncnc(N)c34)[nH]c12 [OSI-027] (partner 0.5 µM)
How it was run: as §1

| Cell Line | relative viability (FG-4592 + Pemetrexed; first compound 0.08 µM) | relative viability (FG-4592 + Pemetrexed; first compound 0.253 µM) | relative viability (FG-4592 + Pemetrexed; first compound 0.8 µM) | relative viability (FG-4592 + Pemetrexed; first compound 8 µM) | relative viability (FG-4592 + Lapatinib; first compound 0.08 µM) | relative viability (FG-4592 + Lapatinib; first compound 0.253 µM) | relative viability (FG-4592 + Lapatinib; first compound 0.8 µM) | relative viability (FG-4592 + Lapatinib; first compound 2.53 µM) | relative viability (FG-4592 + Lapatinib; first compound 8 µM) | relative viability (IU1-47 + Foretinib; first compound 0.08 µM) | relative viability (IU1-47 + Foretinib; first compound 0.253 µM) | relative viability (IU1-47 + Foretinib; first compound 0.8 µM) | relative viability (IU1-47 + Foretinib; first compound 8 µM) | relative viability (FG-4592 + OSI-027; first compound 0.08 µM) | relative viability (FG-4592 + OSI-027; first compound 0.253 µM) | relative viability (FG-4592 + OSI-027; first compound 0.8 µM) | relative viability (FG-4592 + OSI-027; first compound 2.53 µM) | relative viability (FG-4592 + OSI-027; first compound 8 µM) | relative viability (FG-4592 + Pemetrexed; first compound 2.53 µM) | relative viability (IU1-47 + Foretinib; first compound 2.53 µM) |
| --- | --- | --- | --- | --- | --- | --- | --- | --- | --- | --- | --- | --- | --- | --- | --- | --- | --- | --- | --- | --- |
| NCI-H2087 | 0.604 | 0.565 | 0.658 | 0.591 | 0.888 | 0.943 | 1.37 | 1.1 | 1.15 | 1.26 | 1.14 | 1.31 | 1.18 | 0.559 | 0.538 | 0.669 | 0.473 | 0.486 |  |  |
| NCI-H2126 | 0.701 | 0.583 | 0.656 | 0.696 | 0.672 | 0.708 | 0.604 | 0.613 | 0.589 | 1.28 | 1.17 | 1.22 | 1.03 | 0.806 | 0.627 | 0.663 | 0.623 | 0.67 | 0.609 | 0.723 |
| NCI-H2170 | 0.235 | 0.308 | 0.256 | 0.252 | 0.263 | 0.244 | 0.242 | 0.277 | 0.256 | 1.14 | 1.08 | 1.03 | 1.24 | 0.788 | 0.66 | 0.652 | 0.693 | 0.531 | 0.266 | 0.994 |
| NCI-H2228 | 0.368 | 0.302 | 0.434 | 0.32 | 1.46 | 0.778 | 0.84 | 0.844 | 0.864 | 1.14 | 1.05 | 0.975 | 0.75 | 0.596 | 0.402 | 0.42 | 0.643 | 0.376 | 0.331 | 0.827 |
| NCI-H2347 | 0.411 | 0.417 | 0.439 | 0.478 | 0.906 |  | 0.848 | 0.917 | 0.974 | 0.707 | 0.605 | 0.843 | 1.1 | 0.235 |  | 0.491 | 0.3 | 0.46 | 0.425 | 1.17 |
| NCI-H2405 | 0.81 | 1.01 | 0.949 | 0.984 |  | 0.733 | 0.87 | 0.918 | 0.702 | 1.13 | 1.11 | 1 | 1.07 | 0.506 |  | 0.586 | 0.518 | 0.628 | 0.792 | 1.05 |
| NCI-H3122 | 0.197 | 0.191 | 0.194 | 0.211 | 1.1 | 0.989 | 1.03 | 1.08 | 1.1 |  | 0.94 | 1.02 | 0.976 | 1 | 0.899 | 0.889 | 0.768 | 0.563 | 0.187 | 1.07 |
| PC-3 [JPC-3] | 1.09 | 1.02 |  | 1.05 | 0.446 | 0.419 | 0.362 | 0.402 | 0.439 | 1.13 | 1.11 | 1.12 | 1.05 | 0.674 | 0.75 | 0.79 | 0.662 | 0.681 | 1.19 | 1.08 |
| PC-14 | 0.128 | 0.138 | 0.129 | 0.148 | 0.365 | 0.317 | 0.345 | 0.336 | 0.298 | 1.07 | 1.03 | 0.954 | 0.907 | 0.871 | 0.655 | 0.855 | 0.747 | 0.494 | 0.131 | 0.959 |
| RERF-LC-KJ | 0.466 | 0.472 | 0.481 | 0.498 | 0.793 | 0.816 | 0.86 | 0.899 | 0.725 | 0.877 | 0.918 | 0.922 | 0.893 | 0.606 | 0.503 | 0.565 | 0.505 | 0.567 | 0.486 | 0.868 |
| SK-LU-1 | 0.949 | 0.842 | 1.05 | 1.05 | 0.774 | 0.717 | 0.776 | 0.988 | 0.88 | 0.855 | 0.752 | 0.879 | 0.868 | 0.3 | 0.177 | 0.349 | 0.345 | 0.239 | 1.06 | 0.852 |
| SK-MES-1 | 0.88 | 0.833 | 0.927 | 0.917 | 0.513 | 0.489 | 0.42 | 0.489 | 0.397 | 0.999 | 1.05 | 0.838 | 0.921 | 0.568 | 0.585 | 0.546 | 0.483 | 0.453 | 0.906 | 0.844 |
| SW 1573 | 0.753 | 0.638 | 0.805 | 0.535 | 1.05 | 1.12 | 1.11 | 1.11 | 1.22 | 1.03 | 0.965 | 1.11 | 1.02 | 0.556 | 0.537 | 0.63 | 0.536 | 0.561 | 0.809 | 0.749 |
